One series can be described thus: in vitro. Particulars: human, hela cells, % viability.
Usually viability stands for a read-out of living cells in per cent, often relative to untreated cells. With `Cc1ccc(-c2cc(C(=O)N3CCOCC3)c3cc(Br)ccc3n2)cc1` [CBK066901], the viability at 28.5 h, 10 µM was 86.4%.

For the molecule `COc1ccc([C@]23CC[C@H](NC(=O)Nc4ccc(F)cc4F)C[C@H]2N(C)CC3)cc1OC` [CBK066917T], the viability at 28.5 h, 10 µM was 90.6%.

For the molecule `O=S(=O)(Nc1cc(NC2CCNC2)c2occc2c1)c1ccccc1` (stereo not shown) [CBK066943C], the viability at 28.5 h, 10 µM is 104%.

For the molecule `CCN(CC)C(=O)[C@@H]1CCCN(C2CCN(C(=O)c3c4ccccc4cc4ccccc34)CC2)C1` [CBK066966C], the viability at 28.5 h, 10 µM turned out to be 90.4%.

For the molecule `CCN(CC)C(=O)C1CCCN(C2CCN(C(=O)c3c4ccccc4cc4ccccc34)CC2)C1` (stereo not shown) [CBK066966], the viability at 28.5 h, 10 µM stood at 102%.

Consider `CC(=O)N1CCc2c([nH]c3ccccc23)C1CNCc1ccc(F)cc1` (stereo not shown) [CBK066968], for which the viability at 28.5 h, 10 µM was found to be 96.6%.

For the molecule `Fc1ccc(OCCNCCC2NCCc3c2[nH]c2ccccc32)cc1` (stereo not shown) [CBK066970], the viability at 28.5 h, 10 µM was 97.6%.

`Cc1ccc(CCCC(=O)N2CCc3c([nH]c4c(C)cccc34)C23CCN(Cc2ccc(F)cc2)C3)cc1` (stereo not shown) [CBK066979]: the viability at 28.5 h, 10 µM worked out at 99.2%.

Consider `CCCN(CC1CC1)C(=O)CC1SC(NCC2CCCCC2)=NC1=O` (stereo not shown) [CBK067014], for which the viability at 28.5 h, 10 µM came to 104%.

For `O=C1N=C(NCC2CCCCC2)OC1Cc1ccccc1` (stereo not shown) [CBK067023], the viability at 28.5 h, 10 µM came out at 94.1%.

Regarding `COc1ccc(Br)cc1C(=O)NCC1(c2ccccc2)CCOCC1` [CBK067051], the viability at 28.5 h, 10 µM was determined as 82.7%.

With `S=C(NCC1CCCCC1)Nc1ncc(Cl)cc1Cl` [CBK067053], the viability at 28.5 h, 10 µM turned out to be 91%.

For the molecule `CC(C)(C#N)C(C)(C)c1nnn[nH]1` [CBK067072], the viability at 28.5 h, 10 µM turned out to be 85.1%.

As for `CC1CCC(C(C)C)C(OC(=O)C(C)O)C1` (stereo not shown) [CBK067073], the viability at 28.5 h, 10 µM was 81.6%.

`COc1ccc([C@@]23CC[C@@H](NC(=O)Nc4nc(Cl)cc(Cl)n4)C[C@@H]2N(C)CC3)cc1OC` [CBK067083T]: the viability at 28.5 h, 10 µM came to 96.3%.

In the case of `Clc1cnc2nc(NCC3CCCCC3)sc2c1` [CBK067087], the viability at 28.5 h, 10 µM worked out at 87.5%.

As to `O=C1c2ccccc2C2(c3ccccc3)NCCN12` (stereo not shown) [CBK067098], the viability at 28.5 h, 10 µM stood at 101%.

Consider `CC12CCC(=O)N1CCCN2` (stereo not shown) [CBK067102T], for which the viability at 28.5 h, 10 µM came out at 94.5%.

For `O=S(=O)(Nc1cccc(-c2cnco2)c1)c1cccc2cccnc12` [CBK067104], the viability at 28.5 h, 10 µM is 81%.

On to `O=S(=O)(Nc1cccc(-c2cnco2)c1)c1ccc(Cl)c(Cl)c1` [CBK067117], for which the viability at 28.5 h, 10 µM stood at 80.9%.

For the molecule `CN1CCOc2cc(S(=O)(=O)Nc3cccc(-c4cnco4)c3)ccc21` [CBK067119], the viability at 28.5 h, 10 µM stood at 82.9%.

For the molecule `O=C(O)c1cc(S(=O)(=O)Nc2cccc(-c3cnco3)c2)c(F)cc1Cl` [CBK067126], the viability at 28.5 h, 10 µM came to 90.5%.

As to `Cc1c(S(=O)(=O)Nc2ccc3cn[nH]c3c2)cnn1-c1ccccc1` [CBK067149], the viability at 28.5 h, 10 µM came to 92.4%.

For `O=S(=O)(Nc1ccc2cn[nH]c2c1)c1ccc(-c2ccon2)s1` [CBK067157], the viability at 28.5 h, 10 µM worked out at 98.3%.

Regarding `O=[N+]([O-])c1cc(S(=O)(=O)Nc2ccc3cn[nH]c3c2)ccc1Cl` [CBK067160], the viability at 28.5 h, 10 µM is 91.1%.

As to `Cn1nc(-c2ccc(S(=O)(=O)n3cc(C#N)c(N)n3)s2)cc1C(F)(F)F` [CBK067237], the viability at 28.5 h, 10 µM was determined as 91.2%.

Turning to `Cc1cc(NS(=O)(=O)c2cccc(C(F)(F)F)c2)n(C)n1` [CBK067244], the viability at 28.5 h, 10 µM came to 94.1%.

Take `Cc1cc(NS(=O)(=O)c2c(C)nn(C)c2Cl)n(C)n1` [CBK067245]: the viability at 28.5 h, 10 µM was 99.9%.

As to `Cc1cc(NS(=O)(=O)c2cnn(-c3ccccc3)c2C)n(C)n1` [CBK067252], the viability at 28.5 h, 10 µM was determined as 107%.

As to `O=S(=O)(Nc1cccc(Cl)c1Cl)c1cccc2nsnc12` [CBK067296], the viability at 28.5 h, 10 µM is 86.3%.

Take `Cc1nn(C)c(Cl)c1S(=O)(=O)NCCc1c[nH]c2ccccc12` [CBK067310]: the viability at 28.5 h, 10 µM is 85.2%.

`Cc1noc(C)c1S(=O)(=O)NCCc1c[nH]c2ccccc12` [CBK067311]: the viability at 28.5 h, 10 µM was 101%.

Take `O=C1N=C(NC2CCCCCC2)SC1CC(=O)N1CCOC12CCCCC2` (stereo not shown) [CBK067355]: the viability at 28.5 h, 10 µM came out at 94%.

In the case of `Cc1cc(NS(=O)(=O)c2ccccc2Br)n(C)n1` [CBK067376], the viability at 28.5 h, 10 µM was found to be 102%.

As for `CCCCN(C(=O)CC1SC(NC2CCCCCC2)=NC1=O)c1ccccc1` (stereo not shown) [CBK067392], the viability at 28.5 h, 10 µM turned out to be 92.4%.

As to `O=C1N=C(NC2CCCCCC2)SC1CC(=O)N(Cc1ccccc1)c1ccccc1` (stereo not shown) [CBK067394], the viability at 28.5 h, 10 µM is 85.2%.

For the molecule `COc1ccc([C@@]23CC[C@@H](NC(=O)Nc4ccc(F)c(F)c4)C[C@@H]2N(C)CC3)c(F)c1OC` [CBK067405], the viability at 28.5 h, 10 µM amounted to 102%.

Regarding `O=C(COc1ccccc1)NCC1(c2ccccc2)CCOCC1` [CBK067407], the viability at 28.5 h, 10 µM is 103%.

Consider `O=C(NCC1(c2ccccc2)CCOCC1)c1ccno1` [CBK067408], for which the viability at 28.5 h, 10 µM was 98.2%.

As for `COc1ccc(C)cc1S(=O)(=O)Nc1cc(OCCN2CCOCC2)c2occc2c1` [CBK067419C], the viability at 28.5 h, 10 µM amounted to 87.7%.

Turning to `O=C1CCC(=O)N1Cc1cccc(-c2ccnc(NS(=O)(=O)c3ccc(Cl)cc3)n2)c1` [CBK067436], the viability at 28.5 h, 10 µM worked out at 86.3%.

For the molecule `COc1ccc(S(=O)(=O)Nc2nccc(-c3ccc(CN4C(=O)CCC4=O)cc3)n2)cc1` [CBK067438], the viability at 28.5 h, 10 µM amounted to 91.5%.

With `CC(C)CN(C)CC(=O)NC1(c2ccccc2)CCC1` [CBK067455T], the viability at 28.5 h, 10 µM turned out to be 111%.

Regarding `O=C(NCCC1SC(NC2CCCCCC2)=NC1=O)Nc1ccc(F)cc1F` (stereo not shown) [CBK067469], the viability at 28.5 h, 10 µM was 99.7%.

On to `Cc1ccc(S(=O)(=O)Nc2ccnc(-c3ccc(CO)cc3)n2)cc1` [CBK067477], for which the viability at 28.5 h, 10 µM is 90.4%.

With `O=[N+]([O-])c1cnc(NS(=O)(=O)c2ccc(Oc3ccccc3)cc2)s1` [CBK067535], the viability at 28.5 h, 10 µM was 102%.

Turning to `O=[N+]([O-])c1cnc(NS(=O)(=O)c2ccc(-c3cc(C(F)(F)F)on3)s2)s1` [CBK067545], the viability at 28.5 h, 10 µM came out at 103%.

Take `Cc1noc(C)c1S(=O)(=O)Nc1nc(=O)[nH]cc1F` [CBK067569]: the viability at 28.5 h, 10 µM was found to be 103%.

Turning to `O=c1nc(NS(=O)(=O)c2ccc(Oc3ccccc3)cc2)c(F)c[nH]1` [CBK067571], the viability at 28.5 h, 10 µM was 89.3%.

As for `O=c1nc(NS(=O)(=O)c2ccccc2Br)c(F)c[nH]1` [CBK067573], the viability at 28.5 h, 10 µM came to 76.6%.

For the molecule `Cn1nc(-c2ccc(S(=O)(=O)Nc3nc(=O)[nH]cc3F)s2)cc1C(F)(F)F` [CBK067574], the viability at 28.5 h, 10 µM amounted to 96.8%.

For the molecule `Nc1ncc(-c2ccsc2)c2cccnc12` [CBK067580], the viability at 28.5 h, 10 µM is 97.5%.

Turning to `CSc1ccc(-c2cnc(N)c3ncccc23)cc1` [CBK067584], the viability at 28.5 h, 10 µM worked out at 68.4%.

With `COc1cc(F)ccc1-c1cnc(N)c2ncccc12` [CBK067585], the viability at 28.5 h, 10 µM was found to be 81.4%.

On to `CC(C)(C)c1ccc(-c2cnc(N)c3ncccc23)cc1` [CBK067589], for which the viability at 28.5 h, 10 µM came to 99.2%.

Take `Nc1ncc(-c2cccc(C(F)(F)F)c2)c2cccnc12` [CBK067590]: the viability at 28.5 h, 10 µM is 89.2%.

`Nc1ncc(-c2ccc(-c3ccccc3F)cc2)c2cccnc12` [CBK067597]: the viability at 28.5 h, 10 µM came to 76.5%.

In the case of `Nc1cc2cccnc2nc1-c1ccncc1` [CBK067601], the viability at 28.5 h, 10 µM came out at 96.5%.

Turning to `CC(C)(C)c1ccc(-c2nc3ncccc3cc2N)cc1` [CBK067611], the viability at 28.5 h, 10 µM was 94.4%.

For `Nc1cc2cccnc2nc1-c1ccc(OC(F)(F)F)cc1` [CBK067616], the viability at 28.5 h, 10 µM is 93.8%.

`Nc1ccc2ccc(-c3ccncc3)nc2n1` [CBK067622]: the viability at 28.5 h, 10 µM was 82.8%.

As for `Nc1ccc2ccc(-c3cccc(C(F)(F)F)c3)nc2n1` [CBK067629], the viability at 28.5 h, 10 µM was 97.5%.

Take `Nc1ccc2c(-c3ccsc3)ccnc2n1` [CBK067637]: the viability at 28.5 h, 10 µM worked out at 95.5%.

For the molecule `Nc1ccc2c(-c3cc(F)cc(F)c3)ccnc2n1` [CBK067638], the viability at 28.5 h, 10 µM was 93.4%.

In the case of `O=C(CC1SC(NC2CCCCCC2)=NC1=O)NCc1c(F)cccc1Cl` (stereo not shown) [CBK067656], the viability at 28.5 h, 10 µM was found to be 89.7%.

In the case of `Cn1c(SCc2cccnc2)nnc1-c1cccs1` [CBK067706], the viability at 28.5 h, 10 µM worked out at 93.1%.

`Cn1cnnc1SCC(=O)c1cccc(C(F)(F)F)c1` [CBK067718]: the viability at 28.5 h, 10 µM is 93.5%.

For `CSc1nnc(-c2ccco2)n1-c1cccc(Cl)c1C` [CBK067723], the viability at 28.5 h, 10 µM stood at 93.1%.

Consider `CCOC(=O)c1sc(-c2ccccc2)nc1OCc1ccccc1Cl` [CBK067727], for which the viability at 28.5 h, 10 µM was 95.8%.

Take `O=C(O)Cc1sc(-c2ccc(Cl)cc2)nc1O` [CBK067730]: the viability at 28.5 h, 10 µM stood at 93.1%.

With `CCOC(=O)c1nc(-c2ccccc2)sc1C(C)=O` [CBK067739], the viability at 28.5 h, 10 µM is 98.8%.

Take `COC(=O)COc1ccccc1/C=C1\SC(c2ccc(C)cc2)=NC1=O` [CBK067741]: the viability at 28.5 h, 10 µM stood at 92.6%.

Turning to `COC(=O)c1sccc1OCc1nnc(-c2ccc(Cl)c(Cl)c2)o1` [CBK067742], the viability at 28.5 h, 10 µM was found to be 96.5%.

On to `CSc1oc(-c2ccccc2)nc1C(N)=O` [CBK067744], for which the viability at 28.5 h, 10 µM amounted to 98.4%.

For `CCOC(=O)c1sc(NC(=O)c2ccccc2Br)nc1C` [CBK067745], the viability at 28.5 h, 10 µM turned out to be 90.2%.

In the case of `NC(=O)c1csc(-c2ccc(F)cc2F)n1` [CBK067749], the viability at 28.5 h, 10 µM came out at 68.6%.

In the case of `CCCC1=NNC(=O)C1Cc1c(F)cccc1Cl` (stereo not shown) [CBK067753], the viability at 28.5 h, 10 µM was 88.8%.

For the molecule `CC1=NNC(=O)C1Cc1c(Cl)cccc1Cl` (stereo not shown) [CBK067754], the viability at 28.5 h, 10 µM is 109%.

Consider `CC1=NNC(=O)C1Cc1ccc(F)cc1` (stereo not shown) [CBK067755], for which the viability at 28.5 h, 10 µM was 97.4%.

Regarding `CC1=NNC(=O)C1C(c1ccc(Cl)cc1Cl)C1C(=O)NN=C1C` (stereo not shown) [CBK067756], the viability at 28.5 h, 10 µM turned out to be 109%.

`O=C1NN=C(Cc2ccccc2)C1c1ccccc1` (stereo not shown) [CBK067757]: the viability at 28.5 h, 10 µM turned out to be 95.6%.

Still in this series, the particulars now being: human, hela cells, % viability, bulk resorufin, single well.
Turning to `COc1ccc([C@]23CC[C@H](NC(=O)Nc4ccc(C#N)c(Cl)c4)C[C@H]2N(C)CC3)cc1OC` [CBK066928T], the viability at 28.5 h, 10 µM came out at 94.9%.

Source of the values: publication PMC12040169 (PLOS Biology, 2025).
